Measurements: patent US10899738B2 (THE REGENTS OF THE UNIVERSITY OF MICHIGAN, priority 2016, dated 2021)

The molecules below were run against menin protein (Homo sapiens (Human), UniProt O00255) (assay: biochemical). Conditions: FP competitive binding; menin protein 4 nM, FAM-MM2 probe 2 nM.
Type: binding
Summary of the method: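 Competitive fluorescence polarization assay using FAM-labelled MLL1 peptide probe FAM-MM2 (2 nM final) preincubated with menin (4 nM final) in PBS with 0.02% bovine γ-globulin, 4% DMSO and 0.01% Triton X-100. Compounds were added and incubated 30 min at room temperature. IC50 came from nonlinear regression of competition curves, with Ki also derived.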

Chain of menin protein (O00255 whole entry): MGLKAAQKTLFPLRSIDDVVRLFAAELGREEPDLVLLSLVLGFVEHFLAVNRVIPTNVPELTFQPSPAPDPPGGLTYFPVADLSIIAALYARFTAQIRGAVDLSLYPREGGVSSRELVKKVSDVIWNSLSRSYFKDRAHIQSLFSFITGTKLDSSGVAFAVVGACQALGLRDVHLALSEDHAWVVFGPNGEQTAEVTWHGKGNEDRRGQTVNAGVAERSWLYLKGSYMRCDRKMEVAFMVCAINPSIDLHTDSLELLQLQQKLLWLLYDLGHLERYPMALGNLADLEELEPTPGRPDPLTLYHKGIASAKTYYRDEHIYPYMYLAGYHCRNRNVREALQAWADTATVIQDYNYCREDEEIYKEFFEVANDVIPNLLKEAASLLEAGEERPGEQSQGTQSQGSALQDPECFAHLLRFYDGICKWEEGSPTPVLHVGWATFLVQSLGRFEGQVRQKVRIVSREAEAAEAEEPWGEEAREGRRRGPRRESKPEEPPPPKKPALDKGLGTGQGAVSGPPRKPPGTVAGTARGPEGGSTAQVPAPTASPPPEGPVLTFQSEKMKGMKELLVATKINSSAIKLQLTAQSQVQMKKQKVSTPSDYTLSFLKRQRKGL

Menin Binding Affinity IC50 (μM)	SMILES
No inhibition	CCN1Cc2ccccc2C(C2CCCC2)(C2CCN(S(=O)(=O)C3CN(c4ccc(S(=O)(=O)c5ccncc5)cc4)C3)CC2)C1 (centres unmarked) [compound 160, 4-cyclopentyl-2-ethyl-4-(1-((1-(4-(pyridin-4-ylsulfonyl)phenyl)azetidin-3-yl)sulfonyl)piperidin-4-yl)-1,2,3,4-tetrahydroisoquinoline]

Same assay, conditions: FP competitive binding; menin protein 4 nM, FAM-MM2 probe 2 nM; read-out: Menin Binding Affinity IC50

IC50 [nM]	SMILES
6900	CC(=O)OC[C@@H]1CCC[C@H]1C(C#N)(c1ccccc1)C1CCN(CC2CN(c3ccc(S(=O)(=O)C4CC4)cc3)C2)CC1 (mixture of isomers) [compound 262, rac-((1R,2R)-2-(cyano(1-((1-(4-(cyclopropylsulfonyl)phenyl)azetidin-3-yl)methyl)piperidin-4-yl)(phenyl)methyl)cyclopentyl) methyl acetate]
281	CNC(=O)O[C@@H]1CCC[C@H]1C(Cn1ccnc1)(c1ccccc1)C1CCN(CC2CN(c3ccc(C#N)cc3)C2)CC1 (mixture of isomers) [compound 365, rac-(1R,2S)-2-(1-(1-((1-(4-cyanophenyl)azetidin-3-yl)methyl)piperidin-4-yl)-2-(1H-imidazol-1-yl)-1-phenylethyl)cyclopentyl methylcarbamate]
498	CNC(=O)O[C@@H]1CCC[C@H]1C(C#N)(c1ccccc1)C1CCN(CC2CN(c3ccc(S(=O)(=O)C4CC4)cc3)C2)CC1 (mixture of isomers) [compound 227, rac-(1R,2S)-2-(cyano(1-((1-(4-(cyclopropylsulfonyl)phenyl)azetidin-3-yl)methyl)piperidin-4-yl)(phenyl)methyl)cyclopentyl methylcarbamate]
13	CNC(=O)O[C@H]1CCC[C@@H]1C(C#N)(c1ccccc1)C1CCN(CC2CN(c3ccc([N+](=O)[O-])cc3)C2)CC1 (mixture of isomers) [compound 385, rac-(1S,2R)-2-(cyano(1-((1-(4-nitrophenyl)azetidin-3-yl)methyl)piperidin-4-yl)(phenyl)methyl)cyclopentyl methylcarbamate]
28	CNC(=O)O[C@H]1CCC[C@@H]1C(C#N)(c1ccccc1)C1CCN(CC2CN(c3ccc(C(C)(C)C)cc3)C2)CC1 (mixture of isomers) [compound 422, rac-(1S,2R)-2-((1-((1-(4-(tert-butyl)phenyl)azetidin-3-yl)methyl)piperidin-4-yl)(cyano)(phenyl)methyl) cyclopentyl methylcarbamate]
5100	COC(=O)N[C@@H]1CCC[C@H]1C(C#N)(c1ccccc1)C1CCN(CC2CN(c3ccc(S(=O)(=O)C4CC4)cc3)C2)CC1 (mixture of isomers) [compound 320, rac-methyl ((1R,2S)-2-(cyano(1-((1-(4-(cyclopropylsulfonyl)phenyl)azetidin-3-yl)methyl)piperidin-4-yl)(phenyl)methyl)cyclopentyl)carbamate]
4700	CS(=O)(=O)N[C@@H]1CCC[C@H]1C(C#N)(c1ccccc1)C1CCN(CC2CN(c3ccc(S(=O)(=O)c4ccncc4)cc3)C2)CC1 (mixture of isomers) [compound 268, rac-N-((1R,2S)-2-(cyano(phenyl)(1-((1-(4-(pyridin-4-ylsulfonyl)phenyl)azetidin-3-yl)methyl)piperidin-4-yl)methyl)cyclopentyl) methanesulfonamide]
23200	CS(=O)(=O)CO[C@@H]1CCC[C@H]1C(C#N)(c1ccccc1)C1CCN(CC2CN(c3ccc(S(=O)(=O)c4ccncc4)cc3)C2)CC1 (mixture of isomers) [compound 254, rac-2-((1S,2R)-2-((methylsulfonyl)methoxy)cyclopentyl)-2-phenyl-2-(1-((1-(4-(pyridin-4-ylsulfonyl)phenyl)azetidin-3-yl)methyl)piperidin-4-yl)acetonitrile]
776	CNC(=O)O[C@@H]1CCC[C@H]1C(C#N)(c1ccccc1)C1CCN(CC2CN(c3ccc(C(C)(C)C)cc3)C2)CC1 (mixture of isomers) [compound 423, rac-(1R,2S)-2-((1-((1-(4-(tert-butyl)phenyl)azetidin-3-yl)methyl)piperidin-4-yl)(cyano)(phenyl)methyl) cyclopentyl methylcarbamate]
4700	CS(=O)(=O)C[C@H]1CCC[C@@H]1C(C#N)(c1ccccc1)C1CCN(CC2CN(c3ccc(S(=O)(=O)c4ccncc4)cc3)C2)CC1 (mixture of isomers) [compound 255, rac-2-((1S,2S)-2-((methylsulfonyl)methyl)cyclopentyl)-2-phenyl-2-(1-((1-(4-(pyridin-4-ylsulfonyl)phenyl)azetidin-3-yl)methyl)piperidin-4-yl)acetonitrile]
3300	CS(=O)(=O)C[C@@H]1CCC[C@H]1C(C#N)(c1ccccc1)C1CCN(CC2CN(c3ccc(S(=O)(=O)c4ccncc4)cc3)C2)CC1 (mixture of isomers) [compound 256, rac-2-((1R,2R)-2-((methylsulfonyl)methyl)cyclopentyl)-2-phenyl-2-(1-((1-(4-(pyridin-4-ylsulfonyl)phenyl)azetidin-3-yl)methyl)piperidin-4-yl)acetonitrile]

The next lines start with the molecule.

SMILES	IC50 [nM]
N#Cc1cc2cc(CN3CCC(C4(C5CCCC5)NCCc5ccccc54)CC3)ccc2[nH]1 (centres unmarked) [compound 114, 5-((4-(1-cyclopentyl-1,2,3,4-tetrahydroisoquinolin-1-yl)piperidin-1-yl)methyl)-1H-indol-2-carbonitrile]	32600
Cn1cccc1S(=O)(=O)c1ccc(N2CC(CN3CCC(C4(C5CCCC5)NCCc5ccccc54)CC3)C2)cc1 (centres unmarked) [compound 98, 1-cyclopentyl-1-(1-((1-(4-((1-methyl-1H-pyrrol-2-yl)sulfonyl)phenyl)azetidin-3-yl)methyl)piperidin-4-yl)-1,2,3,4-tetrahydroisoquinoline]	21
CC(C)C(=O)N1CCCCC1C1(C2CCN(CCCOc3ccc(C#N)cc3)CC2)CN(C)Cc2ccccc21 (centres unmarked) [compound 299, 4-(3-(4-(4-(1-isobutyrylpiperidin-2-yl)-2-methyl-1,2,3,4-tetrahydroisoquinolin-4-yl)piperidin-1-yl)propoxy)benzonitrile]	16800
N#Cc1ccc(OCCCN2CCC(C3(C4CCCC4)NCCc4ccc(F)cc43)CC2)cc1 (centres unmarked) [compound 22, 4-(3-(4-(1-cyclopentyl-7-fluoro-1,2,3,4-tetrahydroisoquinolin-1-yl)piperidin-1-yl)propoxy)benzonitrile]	473
c1ccc(OCCCN2CCC(C3(C4CCCC4)NCCc4ccccc43)CC2)cc1 (centres unmarked) [compound 76, 1-cyclopentyl-1-(1-(3-phenoxypropyl)piperidin-4-yl)-1,2,3,4-tetrahydroisoquinoline]	1300
N#Cc1ccc(OCCCN2CCC(C3(C4CCCC4)NCCc4cc(F)ccc43)CC2)cc1 (centres unmarked) [compound 30, 4-(3-(4-(1-cyclopentyl-6-fluoro-1,2,3,4-tetrahydroisoquinolin-1-yl)piperidin-1-yl)propoxy)benzonitrile]	439
CO[C@H]1CCC[C@@H]1C1(C2CCN(CCCOc3ccc(C(=O)O)cc3)CC2)CNCc2ccccc21 (mixture of isomers) [compound 328, rac-4-(3-(4-(4-((1R,2S)-2-methoxycyclopentyl)-1,2,3,4-tetrahydroisoquinolin-4-yl)piperidin-1-yl)propoxy)benzoic acid]	119000
O=S(=O)(c1ccc(CCN2CCc3cc(C4(C5CCCC5)NCCc5ccccc54)ccc3C2)cc1)C1CC1 (centres unmarked) [compound 99, 1-cyclopentyl-2′-(4-(cyclopropylsulfonyl)phenethyl)-1,1′,2,2′,3,3′,4,4′-octahydro-1,6′-biisoquinoline]	802
